# Source: patent US6797692B1, “Use of glutamate antagonists for the treatment of cancer” (priority 1998, dated 2004)
# “Also recorded” adds a separate entry of the source.
# Experiments:
# [1] = system: human tumor cell lines (SKNAS, TE671, MOGGCCM, FTC238, A549, LS180, T47D); experiment: MTT assay of cell viability (antiproliferative effect); type: cell-based; details: 10-500 μM over 96 hrs, linear regression
# Method: (§1) Cell lines and culture. Human neuroblastoma (SKNAS), human rhabdomyosarcoma/medulloblastoma (TE671), human brain astrocytoma (MOGGCCM), human thyroid carcinoma (FTC238), human lung carcinoma (A549), human colon adenocarcinoma (LS180) and human breast carcinoma (T47D) were obtained from European Collection of Cell Cultures (ECACC), Center for Applied Microbiology & Research, Salisbury, UK. SKNAS, TE671, T47D, LS180 were grown in 1:1 mixture of Dulbecco's Modified Eagle's Medium (DMEM; D 6421, Sigma, Ca^2+-concentration 1.05 mM) and Nutrient Mixture F-12 Ham (Ham's F-12; Sigma) supplemented with 10% Foetal Bovine Serum (FBS) (GIBCO). FTC238 was grown in the same culture medium suplemented with 5% FBS. MOGGCCM and A549 were grown in 2:1 mixture of DMEM (D 6046, Sigma, Ca^2+-concentration 1.8 mM):Ham's F-12 supplemented with 10% FBS. Cultures were kept at 37° C. in a 95% air-5% CO2 atmosphere. As Ca^2+-free medium, minimum essential medium M8167 from Sigma was used.
# Assessment of cell viability. The yellow tetrazolium salt MTT (3-4,5-dimethylthiazol-2-2,5-diphenyltetrazolium bromid) is metabolized by viable, metabolically active cells to purple formazan crystals. Tumor cells grown in 96 well multiplates were incubated over 4 hrs with MTT solution (Cell proliferation kit I, Boehringer Mannheim, Germany). Formazan crystals were solubilized overnight, according to the manufacturer's instructions, and the product was quantified spectrophotometrically by measuring absorbance at 570 nm wave length using a VICTOR Multilabel Counter (Wallach).
# (§2) Exposure to agents. Tumor cells were exposed to the following agents and concentrations: MK 801 (10-500 μM), GYKI 52466 (10-500 μM), Cisplatin (10 μM), Vinblastin (1 μM), Thiotepa (10 μM) alone or in combination with MK 801 (10 μM), GYKI 52466 (10 μM) or NBQX (10 μM).
# Cells were exposed to either culture medium alone (control) or dizocilpine (10-500 μM) over 96 hrs and viability was measured photometrically by means of the MTT assay. Data represent mean normalized optical densities±SEM of 6-8 measurements and were analyzed by means of linear regression. Abbreviations. SKNAS: human neuroblastoma; TE671: human rhabdomyosarcoma/medulloblastoma; MOGGCCM: human brain astrocytoma; FTC238: human thyroid carcinoma; A 549: human lung carcinoma; LS180: human colon adenocarcinoma; T47D: human breast carcinoma.
# Cells were exposed to either culture medium alone (control) or GYKI52466 (10-500 μM) over 96 hrs and viability was measured photometrically by means of the MTT assay. Data represent mean normalized optical densities SEM of 68 measurements and were analyzed by means of linear regression. Abbreviations. […]
# [2] = system: human neuroblastoma cell line SK-N-AS; experiment: Tumoricidal effect, necrotic cells by trypan blue staining; type: cell-based; details: Student's t test; for potentiation of tumoricidal effect (toxicity) of cisplatin: antagonist 10 μM plus cisplatin 10 μM; for potentiation of tumoricidal effect (toxicity) of thiotepa: antagonist 10 μM plus thiotepa 10 μM; for potentiation of tumoricidal effect (toxicity) of vinblastin: antagonist 10 μM plus vinblastin 1 μM
# Method: as §1
# Assessment of tumoricidal effect. Quantitation of cell death was performed at 24, 48 or 72 hrs after exposure to the agents of interest following staining of the cells with trypan blue. This stain is taken up by necrotic cells. The numbers of necrotic cells/100 counted cells served as quantitative measure for tumoricidal effect (% of tumor cell death). For each agent or combination of agents and each time point 5 wells were analysed. Comparisons between groups was performed by means of Student's t-test.
# as §2
# Data represent the mean±SEM of necrotic cells visualized by trypan blue staining (n=5/group). The potentiating effect of all three glutamate receptor antagonists was most prominent after an exposure time of 72 h. *P<0.05; **P<0.01; ***P<0.001, Student's t test.
# Data represent the mean±SEM of necrotic cells visualized by trypan blue staining (n=5/group). The potentiating effect of the NMDA- and both AMPA antagonists is most prominent after an exposure time of 72 h. *P<0.05;**P<0.01;***P<0.001, Student's t test.
# Data represent the mean±SEM of necrotic cells visualized by trypan blue staining (n=5/group). The potentiating effect of the NMDA- and both AMPA antagonists is most prominent after an exposure time of 48 hrs. *P<0.05;**P<0.01;***P<0.001, Student's t test.
smiles,measurement,setting,value
C[C@]12N[C@H](Cc3ccccc31)c1ccccc12 [MK 801],"antiproliferative effect in human tumor cell lines (viability, MTT assay)",[1],significant concentration-dependent antiproliferative effect
same,"antiproliferative effect in human tumor cell lines (viability, MTT assay)",[1]; listed as (+)dizocilpine,concentration dependent antiproliferative effect
same,potentiation of tumoricidal effect (toxicity) of cisplatin,[2],significantly (P<0.05-0.001) potentiated
same,potentiation of tumoricidal effect (toxicity) of cisplatin,[2]; listed as MK801,significantly increase toxicity
same,potentiation of tumoricidal effect (toxicity) of thiotepa,[2],significantly (P<0.05-0.001) potentiated
same,potentiation of tumoricidal effect (toxicity) of thiotepa,[2]; listed as MK801,potentiate toxicity
same,potentiation of tumoricidal effect (toxicity) of vinblastin,[2],significantly (P<0.05-0.001) potentiated; also recorded: potentiate toxicity
CC1=NN=C(c2ccc(N)cc2)c2cc3c(cc2C1)OCO3 [GYKI 52466],"antiproliferative effect in human tumor cell lines (viability, MTT assay)",[1],concentration dependent antiproliferative effect
same,"antiproliferative effect in human tumor cell lines (viability, MTT assay)",[1]; listed as GYK152466,significant concentration-dependent antiproliferative effect
same,potentiation of tumoricidal effect (toxicity) of cisplatin,[2],significantly (P<0.05-0.001) potentiated; also recorded: significantly increase toxicity
same,potentiation of tumoricidal effect (toxicity) of thiotepa,[2],significantly (P<0.05-0.001) potentiated; also recorded: potentiate toxicity
same,potentiation of tumoricidal effect (toxicity) of vinblastin,[2],significantly (P<0.05-0.001) potentiated; also recorded: potentiate toxicity
"NS(=O)(=O)c1cccc2c1c([N+](=O)[O-])cc1nc(O)c(O)nc12 [NBQX, 2,3-dihydroxy-6-nitro-7-sulfaoylbenzo-(F)-quinoxaline]",potentiation of tumoricidal effect (toxicity) of cisplatin,[2],significantly (P<0.05-0.001) potentiated; also recorded: significantly increase toxicity
same,potentiation of tumoricidal effect (toxicity) of thiotepa,[2],significantly (P<0.05-0.001) potentiated; also recorded: potentiate toxicity
same,potentiation of tumoricidal effect (toxicity) of vinblastin,[2],significantly (P<0.05-0.001) potentiated; also recorded: potentiate toxicity
